In patent US20040224379A1, “Method and apparatus for detection of toxic substances in a sample” (priority 2000, published 2004):

Tested on: Tetramitus flagellates
Assay: Microscopic observations of swimming behavior and morphology of Tetramitus flagellates during exposure
Type: cell-based, Tetramitus rostratus
Details: 10 μg/mL

O=[N+]([O-])c1cc[n+]([O-])c2ccccc12 [4-nitroquinoline-n-oxide]
Swarming Behavior (exposure time 0.5 Hours): Normal | Swimming Velocity (% Slow) (exposure time 0.5 Hours, cell wraps: 10-20% Slow): 10-20% | Spinner Frequency (exposure time 0.5 Hours, cells rotating in a circular pattern): <1% | Appearance of Larger Morphs (exposure time 0.5 Hours, larger cells with abnormally-formed rostrum and large vacuoles): 1-5% | Appearance of Larger Morphs (exposure time 0.9 Hours): 5-10% | Spinner Frequency (exposure time 0.9 Hours): ˜5% | Swarming Behavior (exposure time 0.9 Hours): Delayed | Swimming Velocity (% Slow) (exposure time 0.9 Hours, cell wraps: 50-70% Slow): 50-70% | Appearance of Larger Morphs (exposure time 1.6 Hours): 10-20% | Spinner Frequency (exposure time 1.6 Hours): 5-10% | Swimming Velocity (% Slow) (exposure time 1.6 Hours, cell wraps: 100% Slow): 100% | Appearance of Larger Morphs (exposure time 4.5 Hours): 50% | Spinner Frequency (exposure time 4.5 Hours): 20% | Swimming Velocity (% Slow) (exposure time 4.5 Hours, cell wraps: 100% Slow): 100% | Spinner Frequency (exposure time 8.7 Hours): 70-90% | Swimming Velocity (exposure time 8.7 Hours): Very Slow | Swarming Behavior (exposure time 8.7 Hours, cell wraps over rows: No Swarming): No | Appearance of Larger Morphs (exposure time 8.7 Hours, cell wraps: 100% Rounded cells with large vacuoles): 100% Rounded cells
